In US8987249B2, “Substituted 2-Aza-bicyclo[2.2.1]heptane-3-carboxylic acid (benzyl-cyano-methyl)-amides inhibitors of Cathepsin C” (Boehringer Ingelheim International GmbH, priority 2013, dated 2015):

Experiments:
[1] = target: recombinant human Cathepsin K (Homo sapiens (Human), UniProt P43235); assay: Inhibition of human Cathepsin K; type: biochemical; conditions: substrate Z-Gly-Pro-Arg-AMC
Summary of the method: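 Proenzyme activated in pH 3.5 sodium acetate for 30 min at room temperature. Enzyme (2 ng/μL final) preincubated 10 min with compound (0.1 nM–100 μM, 1% DMSO) in pH 5.5 acetate/EDTA/L-cysteine buffer, then reacted 60 min at room temperature with Z-Gly-Pro-Arg-AMC. Stopped with 1 μM E64; fluorescence Ex 360/Em 460 nm; IC50 from background-subtracted percent of vehicle control.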

[2] = target: recombinant human DPPI (Cathepsin C) (Homo sapiens (Human), UniProt P53634); assay: Inhibition of human DPPI (Cathepsin C); type: biochemical; conditions: substrate Gly-Arg-AMC
Sequence of recombinant human DPPI (Cathepsin C) (P53634 231-394): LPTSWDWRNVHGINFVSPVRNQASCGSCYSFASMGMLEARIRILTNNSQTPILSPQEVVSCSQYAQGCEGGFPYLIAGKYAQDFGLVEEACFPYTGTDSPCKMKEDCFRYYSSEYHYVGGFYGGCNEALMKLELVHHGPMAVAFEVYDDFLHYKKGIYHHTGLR
Sequence of recombinant human DPPI (Cathepsin C) (P53634 395-463): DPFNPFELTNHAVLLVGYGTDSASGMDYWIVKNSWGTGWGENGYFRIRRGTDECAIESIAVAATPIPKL
Sequence of recombinant human DPPI (Cathepsin C) (P53634 25-134): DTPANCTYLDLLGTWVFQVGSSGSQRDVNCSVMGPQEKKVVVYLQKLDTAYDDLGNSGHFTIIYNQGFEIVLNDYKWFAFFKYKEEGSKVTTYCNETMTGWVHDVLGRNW
Summary of the method: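 Recombinant human DPPI in MES buffer pH 6.0 (5 mM DTT, 0.1% BSA); fluorogenic substrate at 50 μM final, 30 min at room temperature, stopped with 1 μM Gly-Phe-DMK. Background-subtracted fluorescence expressed as percent of vehicle control; IC50 derived.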

[3] = Determination of metabolic stability with human liver microsomes; conditions: pooled human liver microsomes; for half-life at 1 μM: human, pH 7.6; for In vitro stability in human liver microsome incubations t½: 1 μM test compound, 37° C., NADPH
Protocol: Determination of Metabolic Stability with Human Liver Microsomes
The metabolic degradation of the test compound is assayed at 37° C. with pooled human liver microsomes. The final incubation volume of 100 μl per time point contains TRIS buffer pH 7.6 (0.1 M), magnesium chloride (5 mM), microsomal protein (1 mg/ml) and the test compound at a final concentration of 1 μM. Following a short preincubation period at 37° C., the reactions are initiated by addition of beta-nicotinamide adenine dinucleotide phosphate, reduced form (NADPH, 1 mM) and terminated by transferring an aliquot into acetonitrile after different time points. Additionally, the NADPH-independent degradation is monitored in incubations without NADPH, terminated at the last time point. The [%] remaining test compound after NADPH independent incubation is reflected by the parameter c (control) (metabolic stability). The quenched incubations are pelleted by centrifugation (10,000 g, 5 min). An aliquot of the supernatant is assayed by LC-MS/MS for the amount of parent compound.
The half-life (t½ INVITRO) is determined by the slope of the semilogarithmic plot of the concentration-time profile.

Sequence of recombinant human Cathepsin K (P43235 115-329): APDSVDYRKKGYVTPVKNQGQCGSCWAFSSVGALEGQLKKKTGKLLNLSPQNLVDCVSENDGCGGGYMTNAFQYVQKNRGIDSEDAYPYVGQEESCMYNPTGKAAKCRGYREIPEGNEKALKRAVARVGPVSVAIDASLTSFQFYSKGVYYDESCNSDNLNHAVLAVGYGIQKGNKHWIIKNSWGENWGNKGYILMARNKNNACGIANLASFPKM

| SMILES | IC50 [1] | IC50 [2] | half-life at 1 μM [3] | In vitro stability in human liver microsome incubations t½ [3] |
| --- | --- | --- | --- | --- |
| N#C[C@H](Cc1ccc(-c2cccc(C(N)=O)c2)cc1F)NC(=O)[C@H]1N[C@@H]2CC[C@H]1C2 [Example 244] | 2000 nM | 3.7 nM | 1.53 h |  |
| CS(=O)(=O)c1cc(OCC(F)(F)F)cc(-c2ccc(C[C@@H](C#N)NC(=O)[C@H]3N[C@@H]4CC[C@H]3C4)c(F)c2)c1 [Example 276] | 5500 nM | 14.1 nM |  | 2.17 h |
| N#C[C@H](Cc1ccc(-n2cc(CCN3CCOCC3)nn2)cc1F)NC(=O)[C@H]1N[C@@H]2CC[C@H]1C2 [Example 99] | 2900 nM | 21.1 nM | > 2.17 h |  |
| N#C[C@H](Cc1ccc(-c2ccc(C(N)=O)o2)cc1F)NC(=O)[C@H]1N[C@@H]2CC[C@H]1C2 [Example 167] | 6300 nM | 3.4 nM | > 2.17 h |  |
| CCn1nccc1-c1ccc(C[C@@H](C#N)NC(=O)[C@H]2N[C@@H]3CC[C@H]2C3)c(F)c1 [Example 110] | 9800 nM | 28.6 nM | > 2.17 h |  |
| CS(=O)(=O)Nc1cccc(-c2ccc(C[C@@H](C#N)NC(=O)[C@H]3N[C@H]4C[C@@H]3[C@@H]3C[C@@H]34)c(F)c2)c1 [Example 139] | 4800 nM | 11.7 nM | > 2.17 h |  |
| CN(C)CC1CCCN(c2ccc(C[C@@H](C#N)NC(=O)[C@H]3N[C@@H]4CC[C@H]3C4)c(F)c2)C1 (stereo partly drawn) [Example 345] | 9200 nM | 18.4 nM | > 2.17 h |  |
| N#CC(Cc1cc2c(=O)[nH]c3ccccc3c2cc1F)NC(=O)[C@H]1N[C@@H]2CC[C@H]1C2 (stereo partly drawn) [Example 294] | 2200 nM | 1.6 nM | > 2.17 h |  |
| N#CC(Cc1ccc(-c2cnn(-c3ccccc3)c2)cc1F)NC(=O)[C@H]1N[C@@H]2CC[C@H]1C2 (stereo partly drawn) [Example 78] | 6700 nM | 12 nM |  | 2.17 h |
| N#Cc1ccc(-c2ccc(C[C@@H](C#N)NC(=O)[C@H]3N[C@H]4C[C@@H]3[C@@H]3C[C@@H]34)c(F)c2)cc1F [Example 132] | 12200 nM | 18.9 nM | > 2.17 h |  |
| COCCOCc1cn(-c2ccc(C[C@@H](C#N)NC(=O)[C@H]3N[C@@H]4CC[C@H]3C4)c(F)c2)nn1 [Example 112] | 5600 nM | 33.3 nM | > 2.17 h |  |
| N#C[C@H](Cc1ccc(N2CC3CCN(C4CCOC4)C3C2)cc1F)NC(=O)[C@H]1N[C@@H]2CC[C@H]1C2 (stereo partly drawn) [Example 348] | 4300 nM | 17.6 nM |  | 2.17 h |
| N#C[C@H](Cc1ccc(-c2ccc(C(=O)N3CCN4CCOCC4C3)o2)cc1F)NC(=O)[C@H]1N[C@@H]2CC[C@H]1C2 (stereo partly drawn) [Example 238] | 9300 nM | 14.3 nM | 1.83 h |  |
| CS(=O)(=NC#N)c1cccc(-c2ccc(C[C@@H](C#N)NC(=O)[C@H]3N[C@@H]4CC[C@H]3C4)c(F)c2)c1 (stereo partly drawn) [Example 222] | 1700 nM | 2.2 nM | > 2.17 h |  |
| CC(=O)N1CCN(C(=O)c2cc(-c3ccc(C[C@@H](C#N)NC(=O)[C@H]4N[C@@H]5CC[C@H]4C5)c(F)c3)cs2)CC1 [Example 231] | 2400 nM | 2.2 nM | > 2.17 h |  |
| CS(=O)(=O)c1ccc(-c2ccc(C[C@@H](C#N)NC(=O)[C@H]3N[C@@H]4CC[C@H]3C4)c(F)c2)cc1 [Example 16] | 2100 nM | 2.6 nM | > 2.17 h |  |
| CCS(=O)(=O)c1ccc(-c2ccc(CC(C#N)NC(=O)[C@H]3N[C@@H]4CC[C@H]3C4)c(F)c2)cc1 (stereo partly drawn) [Example 71] | 4800 nM | 10.8 nM | > 2 h |  |
| CN1CCN(C(=O)c2cccc(-c3ccc(C[C@@H](C#N)NC(=O)[C@H]4N[C@@H]5CC[C@H]4C5)c(F)c3)c2)CC1 [Example 245] | 1200 nM | 5.9 nM | > 2.17 h |  |

More lines, now with the values ahead:

| IC50 [1] | IC50 [2] | half-life at 1 μM [3] | In vitro stability in human liver microsome incubations t½ [3] | SMILES |
| --- | --- | --- | --- | --- |
| 2100 nM | 11.8 nM | > 2.17 h |  | CS(=O)(=NC#N)c1ccc(-c2ccc(C[C@@H](C#N)NC(=O)[C@H]3N[C@@H]4CC[C@H]3C4)c(F)c2)cc1 (stereo partly drawn) [Example 263] |
| 3700 nM | 6 nM | > 2.17 h |  | CS(C)(=O)=Nc1cccc(-c2ccc(C[C@@H](C#N)NC(=O)[C@H]3N[C@@H]4CC[C@H]3C4)c(F)c2)c1 [Example 259] |
| 3900 nM | 9.1 nM | > 2.17 h |  | CS(=O)(=O)Nc1ccc(-c2ccc(CC(C#N)NC(=O)[C@H]3N[C@@H]4CC[C@H]3C4)c(F)c2)cc1 (stereo partly drawn) [Example 62] |
| 17000 nM | 7.6 nM | > 2.17 h |  | CS(=O)(=O)c1cc(-c2cc(F)c(CC(C#N)NC(=O)[C@H]3N[C@@H]4CC[C@H]3C4)c(F)c2)ccc1C#N (stereo partly drawn) [Example 52] |
| 5400 nM | 13.1 nM | > 2.17 h |  | CCC(C)(O)Cc1cn(-c2ccc(C[C@@H](C#N)NC(=O)[C@H]3N[C@@H]4CC[C@H]3C4)c(F)c2)nn1 (stereo partly drawn) [Example 82] |
| 6600 nM | 7.8 nM | > 2.17 h |  | CN1CC2(C1)CN(c1ccc(C[C@@H](C#N)NC(=O)[C@H]3N[C@@H]4CC[C@H]3C4)c(F)c1)C2 [Example 330] |
| 3200 nM | 3.3 nM | > 2.17 h |  | N#CC(Cc1ccc(-c2ccc3c(c2)NC(=O)C3)cc1F)NC(=O)[C@H]1N[C@@H]2CC[C@H]1C2 (stereo partly drawn) [Example 22] |
| 3100 nM | 4.2 nM | > 2.17 h |  | N#C[C@H](Cc1ccc(N2CCN3CCOC[C@H]3C2)cc1F)NC(=O)[C@H]1N[C@@H]2CC[C@H]1C2 [Example 250] |
| 2200 nM | 5.6 nM | > 2.17 h |  | N#C[C@H](Cc1ccc(N2CCN3CCOCC3C2)cc1F)NC(=O)[C@H]1N[C@@H]2CC[C@H]1C2 (stereo partly drawn) [Example 43] |
| 2000 nM | 3.4 nM | > 2.17 h |  | N#C[C@H](Cc1ccc(-c2cc(C(N)=O)co2)cc1F)NC(=O)[C@H]1N[C@@H]2CC[C@H]1C2 [Example 239] |
| 3900 nM | 8.2 nM | > 2.17 h |  | CC(=O)N1CCC(Cn2cc(-c3ccc(C[C@@H](C#N)NC(=O)[C@H]4N[C@@H]5CC[C@H]4C5)c(F)c3)cn2)CC1 [Example 55] |
| 2300 nM | 8.3 nM | 1.58 h |  | N#C[C@H](Cc1ccc(-c2cnn(CC3CCOCC3)c2)cc1F)NC(=O)[C@H]1N[C@@H]2CC[C@H]1C2 [Example 57] |
| 2800 nM | 6.4 nM | > 2 h |  | N#C[C@H](Cc1ccc(-c2cnn(C[C@@H]3CCOC3)c2)cc1F)NC(=O)[C@H]1N[C@@H]2CC[C@H]1C2 [Example 262] |
| 8200 nM | 22.3 nM | > 2.17 h |  | Cn1nc(C(F)(F)F)cc1-c1ccc(C[C@@H](C#N)NC(=O)[C@H]2N[C@@H]3CC[C@H]2C3)c(F)c1 [Example 100] |
| 4900 nM | 3.1 nM | > 2.17 h |  | N#C[C@H](Cc1ccc(-c2cnn(CC3CCOC3)c2)cc1F)NC(=O)[C@H]1N[C@@H]2CC[C@H]1C2 (stereo partly drawn) [Example 21] |
| 3300 nM | 3.8 nM |  | 2.17 h | CS(=O)(=O)c1ccc(-c2ccc(C[C@@H](C#N)NC(=O)[C@H]3N[C@@H]4CC[C@H]3C4)c(F)c2)cc1OCC(F)F [Example 252] |
| 2700 nM | 39.6 nM | > 2.17 h |  | CN1CCC(c2ccc(C[C@@H](C#N)NC(=O)[C@H]3N[C@@H]4CC[C@H]3C4)c(F)c2)CC1 [Example 117] |
| 4300 nM | 24.8 nM | > 2.17 h |  | N#CC(Cc1ccc(-c2cnc(Cl)cn2)cc1F)NC(=O)[C@H]1N[C@@H]2CC[C@H]1C2 (stereo partly drawn) [Example 102] |
| 6500 nM | 7.3 nM | > 2.17 h |  | N#CC(Cc1ccc(-c2ccc3c(c2)CCNC3=O)cc1F)NC(=O)[C@H]1N[C@@H]2CC[C@H]1C2 (stereo partly drawn) [Example 49] |
